System: 596521-263-R-J1-PDC complex spheroid growth
Experiment: Anticancer human tumor 596521-263-R-J1-PDC patient-derived soft tissue sarcoma cell line growth inhibition [Asc]
Conditions: for IC50: curve of first compound; for viability, T/C: stronger effect = lower value
Summary of the method: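 Tumor cells were grown as complex spheroids with human endothelial cells (HUVEC) and human mesenchymal stem cells as stroma. Agents were tested alone and in combination, in half-log steps down from the clinical Cmax, or from 10 microM where Cmax was unknown.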

[1] = second compound 0.0316 µM, first compound 0.0316 µM
[2] = second compound 0.0316 µM, first compound 0.1 µM
[3] = second compound 0.0316 µM, first compound 0.316 µM
[4] = second compound 0.0316 µM, first compound 1 µM
[5] = second compound 0.1 µM, first compound 0.0316 µM
[6] = second compound 0.1 µM, first compound 0.1 µM
[7] = second compound 0.1 µM, first compound 0.316 µM
[8] = second compound 0.1 µM, first compound 1 µM
[9] = second compound 0.316 µM, first compound 0.0316 µM
[10] = second compound 0.316 µM, first compound 0.1 µM
[11] = second compound 0.316 µM, first compound 0.316 µM
[12] = second compound 0.316 µM, first compound 1 µM
[13] = second compound 1 µM, first compound 0.0316 µM
[14] = second compound 1 µM, first compound 0.1 µM
[15] = second compound 1 µM, first compound 0.316 µM
[16] = second compound 1 µM, first compound 1 µM
[17] = second compound 3.16 µM, first compound 0.0316 µM
[18] = second compound 3.16 µM, first compound 0.1 µM
[19] = second compound 3.16 µM, first compound 0.316 µM
[20] = second compound 3.16 µM, first compound 1 µM
[21] = second compound 10 µM, first compound 0.0316 µM
[22] = second compound 10 µM, first compound 0.1 µM
[23] = second compound 10 µM, first compound 0.316 µM
[24] = second compound 10 µM, first compound 1 µM
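Further: spheroids exposed to compounds for 7 days.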

COc1c(OCCCN2CCOCC2)ccc2c3n(c(=NC(=O)c4cnc(N)nc4)nc12)CCN3 + Cc1c(S(C)(=O)=O)c(-c2cc(F)cc(N3CCN(c4ccc(NS(=O)(=O)c5ccc(NC(CCN6CCC(C(=O)OCCCP(=O)(O)O)CC6)CSc6ccccc6)c(S(=O)(=O)C(F)(F)F)c5)cc4)CC3)c2)c(-c2ccc(Cl)cc2)n1C(C)C
IC50 (second compound 0.0316 µM): 211 nM
IC50 (second compound 0.1 µM): 142 nM
IC50 (second compound 0.316 µM): 138 nM
IC50 (second compound 1 µM): 73.7 nM
IC50 (second compound 3.16 µM): 55.3 nM
IC50 (second compound 10 µM): 8.21 nM
viability, T/C (second compound 0.0316 µM, first compound 0.00316 µM): 95.5%
viability, T/C (second compound 0.0316 µM, first compound 0.01 µM): 90.8%
viability, T/C [1]: 79.2%
viability, T/C [2]: 67.3%
viability, T/C [3]: 39.9%
viability, T/C [4]: 29.4%
viability, T/C (second compound 0.1 µM, first compound 0.00316 µM): 89.6%
viability, T/C (second compound 0.1 µM, first compound 0.01 µM): 92.5%
viability, T/C [5]: 84.2%
viability, T/C [6]: 54.6%
viability, T/C [7]: 37.6%
viability, T/C [8]: 25.6%
viability, T/C (second compound 0.316 µM, first compound 0.00316 µM): 85.6%
viability, T/C (second compound 0.316 µM, first compound 0.01 µM): 84.2%
viability, T/C [9]: 65.9%
viability, T/C [10]: 58.1%
viability, T/C [11]: 36.1%
viability, T/C [12]: 25.4%
viability, T/C (second compound 1 µM, first compound 0.00316 µM): 91.6%
viability, T/C (second compound 1 µM, first compound 0.01 µM): 76.1%
viability, T/C [13]: 62%
viability, T/C [14]: 47%
viability, T/C [15]: 31.3%
viability, T/C [16]: 24.9%
viability, T/C (second compound 3.16 µM, first compound 0.00316 µM): 61.5%
viability, T/C (second compound 3.16 µM, first compound 0.01 µM): 62.9%
viability, T/C [17]: 55.9%
viability, T/C [18]: 43.1%
viability, T/C [19]: 27.1%
viability, T/C [20]: 18.5%
viability, T/C (second compound 10 µM, first compound 0.00316 µM): 52.4%
viability, T/C (second compound 10 µM, first compound 0.01 µM): 50%
viability, T/C [21]: 42.9%
viability, T/C [22]: 41.2%
viability, T/C [23]: 24.8%
viability, T/C [24]: 13.4%

C=CC(=O)N1CCN(c2nc(=O)n(-c3c(C)ccnc3C(C)C)c3nc(-c4c(O)cccc4F)c(F)cc23)C(C)C1 (centres undefined) + Cc1c(S(C)(=O)=O)c(-c2cc(F)cc(N3CCN(c4ccc(NS(=O)(=O)c5ccc(NC(CCN6CCC(C(=O)OCCCP(=O)(O)O)CC6)CSc6ccccc6)c(S(=O)(=O)C(F)(F)F)c5)cc4)CC3)c2)c(-c2ccc(Cl)cc2)n1C(C)C
IC50 (second compound 0.0316 µM): > 10000 nM
IC50 (second compound 0.1 µM): > 10000 nM
IC50 (second compound 0.316 µM): > 10000 nM
IC50 (second compound 1 µM): 6360 nM
IC50 (second compound 3.16 µM): 2980 nM
IC50 (second compound 10 µM): 1350 nM
viability, T/C [1]: 83.2%
viability, T/C [2]: 84.6%
viability, T/C [3]: 95%
viability, T/C [4]: 98.9%
viability, T/C (second compound 0.0316 µM, first compound 3.16 µM): 94.9%
viability, T/C (second compound 0.0316 µM, first compound 10 µM): 65.8%
viability, T/C [5]: 87.3%
viability, T/C [6]: 93.9%
viability, T/C [7]: 93.6%
viability, T/C [8]: 107%
viability, T/C (second compound 0.1 µM, first compound 3.16 µM): 95.8%
viability, T/C (second compound 0.1 µM, first compound 10 µM): 63%
viability, T/C [9]: 83.7%
viability, T/C [10]: 82.5%
viability, T/C [11]: 80.1%
viability, T/C [12]: 99.9%
viability, T/C (second compound 0.316 µM, first compound 3.16 µM): 87.1%
viability, T/C (second compound 0.316 µM, first compound 10 µM): 59.9%
viability, T/C [13]: 82.3%
viability, T/C [14]: 75.9%
viability, T/C [15]: 81%
viability, T/C [16]: 73.5%
viability, T/C (second compound 1 µM, first compound 3.16 µM): 70.5%
viability, T/C (second compound 1 µM, first compound 10 µM): 37.1%
viability, T/C [17]: 66.6%
viability, T/C [18]: 63%
viability, T/C [19]: 62.6%
viability, T/C [20]: 63.4%
viability, T/C (second compound 3.16 µM, first compound 3.16 µM): 49.3%
viability, T/C (second compound 3.16 µM, first compound 10 µM): 36%
viability, T/C [21]: 55.9%
viability, T/C [22]: 53%
viability, T/C [23]: 60.1%
viability, T/C [24]: 52.4%
viability, T/C (second compound 10 µM, first compound 3.16 µM): 40.8%
viability, T/C (second compound 10 µM, first compound 10 µM): 30.6%

Reference: PubChem BioAssay AID1963449 (Molecular Pharmacology Branch, DTP, NCI, 2024)
